Assay [1] deals with L-carnitine amidase. Put plainly: Test for the induction of L-carnitine amidase. The assay is classed as cell-based, strain DSM 6230. As to conditions: for Activity (mU/mg) / Activity (mU/ml): 5 g/l of the substance as inductor, 36 h, L-carnitine amide as substrate; for Induction of L-carnitine amidase (in words): strain DSM 6230. On the procedure:
(§1) In this test, various substances were examined for their induction action. At the same time, the growth on these compounds was followed. The medium used was a minimum medium with 1.0 g/l instead of 0.5 g/l yeast extract, to which 5 g/l of the substance to be tested were added in each instance. The culture without inductor contained 5 g/l yeast extract. All tests were carried out with 20 ml shaking cultures which were incubated 36 h at 30° C. and 120 rpms in a rotating [round]shaking machine. These cultures were inoculated with 1% of an initial culture of strain DSM 6230. L-carnitine amide was used as substrate for the enzyme test.
(§2) At the same time, the growth of the bacteria was followed in these carnitine amide concentrations. The culture conditions corresponded to those in example 3.

A further assay relates to strain DSM 6230. Kind of assay: Growth of strain DSM 6230 on the test substances (OD660). Particulars: for OD660: 5 g/l of the substance in minimum medium with 1.0 g/l yeast extract, 36 h, 30° C.; for Growth of the strain on the substance (in words): strain DSM 6230. In kind it is cell-based. On the procedure: 1367 strains were isolated during the screening program. These strains were incubated in 100 ml Erlenmeyer flasks containing 20 ml of the particular enrichment medium in a rotary agitator at 30° C. and 120 rpms. The optical density at 660 nm was taken as an indication for the cell growth.
as §1, §2

Assay [2] deals with L-carnitine amidase. Kind of assay: Substrate spectrum of L-carnitine amidase. Particulars: for Rel. activity (%): substrate 50 mM, 30° C., 100 mM potassium phosphate buffer pH 8. The assay is classed as biochemical, strain DSM 6230. On the procedure: The enzyme test was carried out at 30° C. in 100 mM potassium phosphate buffer pH 8. The substrate concentration was 50 mM.

In assay [3] the test system is carnitine amidase (raw extract of strain DSM 6230). Put plainly: Activity test of the raw extract of strain DSM 6230 with enantiomerically pure D- and L-carnitine amide. In kind it is biochemical. As to conditions: for Activity (mU/mg) / Activity (mU/ml): raw extract of strain DSM 6230, labelled amide as substrate, 50 mM, 30° C. On the procedure:
After 3 days, the contents of the shaking flasks were centrifuged (10 min., 10000 rpms in a refrigerated centrifuge), and the sedimentated cells were taken up in 100 mM potassium phosphate buffer pH 7.5 (an approximately 20% microorganism suspension was produced).
The microorganisms in this suspension must be macerated in the customary manner (e.g. agitation with fine glass beads or ultrasound treatment). The cell maceration was carried out by means of wet grinding with glass beads (diameter 0.3 mm; 2 g beads per 1 ml cell suspension). The glass beads and the coarse cell fragments were centrifuged off by means of centrifugation in a refrigerated centrifuge (5 min. 12000 rpms). The clear supernatant was designated as raw extract and used for further experiments.
The materials for the activity test contained:
400 μl potassium phosphate buffer 0.1 M, pH 7.5
50 μl substrate in 0.1 M potassium phosphate buffer, pH 7.5
50 μl enzyme solution (raw extract)
The following were used as substrates:
a) DL-carnitine amide final concentration in the test 100 mM
b) D-carnitine amide final concentration in the test 50 mM c) L-carnitine amide final concentration in the test 50 mM
The enzyme test was carried out in 1.5 ml Eppendorf vessels at a temperature of 30° C. The reaction was started by the addition of enzyme solution and stopped by acidification. The precipitated protein was centrifuged off (Eppendorf centrifuge 5 min. 12500 rpms) and the supernatant examined. In order to determine the blank reading, a control specimen for the substrate and the enzyme solution was always used.
The definition of the enzyme unit is 1 mU=1 nM converted substrate per minute.
L-carnitine can be determined enzymatically with the carnitine acetyl transferase. The ammonia was determined on the one hand photometrically as indophenol and on the other hand enzymatically with the aid of glutamate dehydrogenase.
The raw extract of this strain was tested with enantiomerically pure D- and L-carnitine amide:
The raw extract was retested for D- and L-carnitine amide and the enzyme test was stopped after 10 min. (there is still sufficient L-carnitine amide in the test batch) and after 5 hours (the L-carnitine amide has reacted to a great extent or completely). The L-amidase activity, relative to the total amidase activity, was 100% after 10 min. and still over 99% after 5 hours.

Assay [4] deals with 20% cell suspension of the strain DSM 6230. Put plainly: Conversion with whole cells. The assay is classed as cell-based. From the text:
The conversion with whole cells was examined by carrying out the customary enzyme test with a 20% cell suspension of the strain DSM 6230. Result: L-carnitine amide is converted by whole cells with 64% greater activity than by a macerated cell suspension of the same concentration. D-carnitine is not converted. It is therefore to be expected that the conversion of L-carnitine amide to L-carnitine can also be carried out very well by means of immobilized microorganisms. […] Suitable microorganism immobilizates are immobilizates based on alginate or chitosan.

Entries after “also recorded” stand apart in the source; their conditions may differ.

Turning to `CC(O)C(N)=O` (centres unmarked) [Lactic acid amide], in the assay with L-carnitine amidase [1], the “Activity (mU/mg)” value was found to be 28 mU/mg and the “Activity (mU/ml)” value is 55 mU/ml. The compound further yielded an OD660 in the assay on strain DSM 6230 of 0.8. Further, in the assay on L-carnitine amidase [2], the “Rel. activity (%)” value is 0%.
On the same counts, the results for `C=CC(N)=O` [Acrylamide] are 136 mU/mg, 170 mU/ml, 0.8 and 0%.
The like results for `C[N+](C)(C)C[C@@H](O)CC#N` [D-carnitine nitrile] were, in that order, 90 mU/mg, 206 mU/ml, 0.8 and 0%.
For `C[N+](C)(C)C[C@H](O)CC(N)=O` [L-carnitine amide], in assay [3], the “Activity (mU/mg)” value is given as 1960 mU/mg and the “Activity (mU/ml)” value is 8624 mU/ml. In addition, the “L-amidase activity, relative to the total amidase activity” value in assay [3] (raw extract, enzyme test stopped after 10 min.) was determined as 100%. Besides, the “L-amidase activity, relative to the total amidase activity” value in assay [3] (raw extract, enzyme test stopped after 5 hours) is recorded as “over 99%”. In assay [3] (raw extract, relative to total amidase activity), the “L-amidase activity (%)” value is reported as 100%. In the assay with L-carnitine amidase [1], the “Activity (mU/mg)” value stood at 1706 mU/mg, the “Activity (mU/ml)” value came to 8530 mU/ml and the “Induction of L-carnitine amidase (in words)” value (from here on “Induction”) is recorded as “induced; also recorded: best of the inductors tested”. For the same compound, in the assay with strain DSM 6230, the OD660 was found to be 3.5 and the “Growth of the strain on the substance (in words)” value (from here on “Growth of the strain”) is given as “Good growth”. In the assay on L-carnitine amidase [2], the “Hydrolysis / conversion by L-carnitine amidase (in words)” value is on record as “hydrolyzes” and the “Rel. activity (%)” value was determined as 100%. Besides, in assay [4], the “Activity of whole cells, greater than that of a macerated cell suspension of the same concentration” value is 64%.
On to `NC(=O)[C@@H]1CCCN1` [L-proline amide], for which, in the assay on L-carnitine amidase [1], the “Activity (mU/mg)” value is listed as 54 mU/mg and the “Activity (mU/ml)” value was determined as 250 mU/ml. The OD660 in the assay with strain DSM 6230 is on record as 1.0. The “Rel. activity (%)” value in the assay on L-carnitine amidase [2] was found to be 0%.
With `C[N+](C)(C)C[C@@H](O)CC(N)=O` [D-carnitine amide], in assay [3], the “Activity (mU/mg)” value was found to be 0 mU/mg and the “Activity (mU/ml)” value stood at 0 mU/ml. In addition, in the assay with L-carnitine amidase [1], the “Activity (mU/mg)” value is on record as 166 mU/mg and the “Activity (mU/ml)” value amounted to 497 mU/ml. The OD660 with strain DSM 6230 came out at 0.8. In the assay on L-carnitine amidase [2], the “Hydrolysis / conversion by L-carnitine amidase (in words)” value is “does not hydrolyze” and the “Rel. activity (%)” value is listed as 0%.
Regarding `CC(C)[C@H](N)C(N)=O` [L-valine amide], in the assay on L-carnitine amidase [1], the “Activity (mU/mg)” value turned out to be 12 mU/mg and the “Activity (mU/ml)” value was found to be 32 mU/ml. For the same compound, the OD660 in the assay on strain DSM 6230 stood at 0.9. Besides, the “Rel. activity (%)” value with L-carnitine amidase [2] was determined as 0%.
With `CC(C)C[C@H](N)C(N)=O` [L-leucine amide], in the assay with L-carnitine amidase [1], the “Activity (mU/mg)” value worked out at 9 mU/mg, the “Activity (mU/ml)” value is reported as 34 mU/ml and the “Induction” value was “not induced”. In the assay on strain DSM 6230, the OD660 was found to be 2.5 and the “Growth of the strain” value is given as “Good growth”. In addition, the “Rel. activity (%)” value in the assay with L-carnitine amidase [2] was found to be 0%.
As to `NC(=O)CNC(=O)[C@@H](N)Cc1ccc(O)cc1` [L-Tyr-Gly-NH2], in the assay with L-carnitine amidase [2], the “Rel. activity (%)” value is on record as 0%.
In the case of `CCCC(N)=O` [Butyramide], in the assay on L-carnitine amidase [1], the “Activity (mU/mg)” value is given as 18 mU/mg and the “Activity (mU/ml)” value is reported as 54 mU/ml. In the assay with strain DSM 6230, this compound had an OD660 of 0.9. Also, in the assay on L-carnitine amidase [2], the “Rel. activity (%)” value came to 0%.
For the compound `C[N+](C)(C)C[C@@H](O)CC(=O)[O-]` [D-carnitine], the “Conversion by whole cells (in words)” value in assay [4] is “not converted”.
On to `CC[C@H](C)[C@H](N)C(N)=O` [L-Ile-NH2], for which, in the assay on L-carnitine amidase [2], the “Rel. activity (%)” value is on record as 0%.
For the compound `CC(C)C(N)=O` [Isobutyramide], in the assay on L-carnitine amidase [1], the “Activity (mU/mg)” value is listed as 41 mU/mg and the “Activity (mU/ml)” value was determined as 193 mU/ml. The same compound showed an OD660 in the assay on strain DSM 6230 of 1.1. The “Rel. activity (%)” value in the assay with L-carnitine amidase [2] is given as 0%.
Turning to `NC(=O)[C@H](N)Cc1ccccc1` [D-Phe-NH2], the “Rel. activity (%)” value with L-carnitine amidase [2] is on record as 0%.
Regarding `NCC(N)=O` [Glycine amide], in the assay on L-carnitine amidase [1], the “Activity (mU/mg)” value turned out to be 43 mU/mg, the “Activity (mU/ml)” value came to 180 mU/ml and the “Induction” value is reported as “not induced”. In the assay on strain DSM 6230, the OD660 came out at 1.0 and the “Growth of the strain” value is reported as “good growth substrates”. For the same compound, the “Rel. activity (%)” value in the assay with L-carnitine amidase [2] is 0%.
On to `CCC(N)=O` [Propionamide], for which, in the assay on L-carnitine amidase [1], the “Activity (mU/mg)” value was determined as 29 mU/mg and the “Activity (mU/ml)” value is 129 mU/ml. Also, the OD660 in the assay with strain DSM 6230 is on record as 1.1. The “Rel. activity (%)” value in the assay with L-carnitine amidase [2] is given as 0%.
With `NC(=O)[C@@H](N)Cc1ccc(O)cc1` [L-Tyr-NH2], the “Rel. activity (%)” value in the assay on L-carnitine amidase [2] was 0%.
Regarding `C=C(C)C(N)=O` [Methacrylamide], in the assay with L-carnitine amidase [1], the “Activity (mU/mg)” value was determined as 76 mU/mg and the “Activity (mU/ml)” value is 237 mU/ml. This compound came in with an OD660 in the assay on strain DSM 6230 of 0.8. In addition, in the assay with L-carnitine amidase [2], the “Rel. activity (%)” value was found to be 0%.
As for `C[C@H](N)C(N)=O` [L-Ala-NH2], the “Rel. activity (%)” value in the assay with L-carnitine amidase [2] came out at 0%.
On the same count and under the same terms, the same measure for `NC(=O)[C@@H](N)CO` [L-Ser-NH2]: 0%.
As for `C[N+](C)(C)C[C@H](O)CC#N` [L-carnitine nitrile], in the assay with L-carnitine amidase [1], the “Activity (mU/mg)” value came out at 65 mU/mg and the “Activity (mU/ml)” value was determined as 183 mU/ml. Moreover, in the assay on strain DSM 6230, the OD660 came to 0.8. In addition, the “Rel. activity (%)” value in the assay with L-carnitine amidase [2] was 0%.
Turning to `C[C@@H](O)[C@H](N)C(N)=O` [1-Thr-NH2], the “Rel. activity (%)” value with L-carnitine amidase [2] is reported as 0%.
On to `N=C(N)NCCC[C@H](N)C(N)=O` [L-Arg-NH2], for which, in the assay with L-carnitine amidase [2], the “Rel. activity (%)” value came to 0%.
Same read-out and setting: as for `NC(=O)C[C@H](N)C(N)=O` [L-Asn-NH2], the figure is 0%.
On to `NC(=O)[C@@H](N)Cc1ccccc1` [L-phenylalanine amide], for which, in the assay on L-carnitine amidase [1], the “Activity (mU/mg)” value is reported as 72 mU/mg and the “Activity (mU/ml)” value is reported as 172 mU/ml. The OD660 in the assay on strain DSM 6230 is given as 0.6. Also, the “Rel. activity (%)” value in the assay on L-carnitine amidase [2] is 0%.
On the same counts, the results for `CC(N)=O` [Acetamide] are 0 mU/mg, 0 mU/ml, 1.0 and 0%.
For `NC(=O)[C@@H](N)Cc1c[nH]cn1` [L-His-NH2], the “Rel. activity (%)” value with L-carnitine amidase [2] amounted to 0%.
Regarding `NC(=O)c1ccccc1` [Benzamide], in the assay on L-carnitine amidase [1], the “Activity (mU/mg)” value is given as 0 mU/mg and the “Activity (mU/ml)” value is reported as 0 mU/ml. In the assay on strain DSM 6230, the OD660 amounted to 0.3. Further, in the assay with L-carnitine amidase [2], the “Rel. activity (%)” value amounted to 0%.

Values taken from patent US5238838A (Degussa Aktiengesellschaft, priority 1991, dated 1993).
